Assays:
[1] = Absorption rate of ibuprofen in mice (tail vein samples); format: in vivo; settings: mouse, blood (tail vein samples), 25 mg/kg
Excerpt: Additional experiments to test the absorption rate of the different omega-3 oil-containing pharmaceutical compositions described herein was illustrated in a mouse model.

[2] = test system: stomach lesions in fasted mice; settings: 10 mg/kg ketoprofen, one hour after administration, n = 8
[3] = test system: carrageenin-induced ear swelling mouse model; assay: Carrageenin-induced ear swelling mouse model of inflammation; settings: mice, ketoprofen 2 mg/kg, ear volume vs control mice, eight mice per treatment

Cmax [1] [ng/mL]	Average Lesions Score/Stomach [2]	SMILES	% of Inhibition of Inflammation [3] [%]
10000		CC(C)Cc1ccc(C(C)C(=O)O)cc1 (stereo not drawn) [Ibuprofen in saline, ibuprofen]	
	33	CC(C(=O)O)c1cccc(C(=O)c2ccccc2)c1 (stereo not drawn) [Ketoprofen in Saline, ketoprofen]	45

— US11224585B2, “Compositions containing omega-3 oil and uses thereof” (Maine Natural Health Company, Inc., priority 2010, dated 2022)
